Results: patent publication EP4667467A1, “PROTAC DEGRADERS OF MLLT1 AND/OR MLLT3” (Dark Blue Therapeutics Ltd, priority 2024, dated 2025)

Target: T1, MLLT1 (Homo sapiens, UniProt Q03111)
T1 construct: endogenous in cells; host or cells: MV4-11 (ATCC CRL-9591)
T1 sequence (Q03111 1-559): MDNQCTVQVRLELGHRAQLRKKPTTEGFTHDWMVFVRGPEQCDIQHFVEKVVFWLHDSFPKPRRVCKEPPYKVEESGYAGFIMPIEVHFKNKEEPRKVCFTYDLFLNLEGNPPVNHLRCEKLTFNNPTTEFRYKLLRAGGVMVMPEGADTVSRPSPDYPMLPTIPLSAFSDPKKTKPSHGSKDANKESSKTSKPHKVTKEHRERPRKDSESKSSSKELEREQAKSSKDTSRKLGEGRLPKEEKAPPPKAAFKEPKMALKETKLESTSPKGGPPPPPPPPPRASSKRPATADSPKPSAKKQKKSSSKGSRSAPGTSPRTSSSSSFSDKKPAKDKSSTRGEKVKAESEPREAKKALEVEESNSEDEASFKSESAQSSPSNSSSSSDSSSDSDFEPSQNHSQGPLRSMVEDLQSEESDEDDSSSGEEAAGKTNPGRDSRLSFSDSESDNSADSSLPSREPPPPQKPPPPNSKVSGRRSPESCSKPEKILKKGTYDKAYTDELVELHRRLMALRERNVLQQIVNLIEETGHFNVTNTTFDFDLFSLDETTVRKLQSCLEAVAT
Test: MLLT1 Degradation Assay (JESS automated chemiluminescent detection, MV4-11 cells)
Assay type: cell-based
Conditions: 24h, with respect to DMSO control; for MLLT1 % Degradation @ 0.01 µM: 0.01 µM (10 nM) test compound; for MLLT1 % Degradation @ 0.1 µM: 0.1 µM (100 nM) test compound; for MLLT 1 % Degradation @ 1 µM: 1 µM (1000 nM) test compound
Method: MLLT1 degradation efficacy of compounds were tested in an automated chemiluminescent detection system (JESS, Cat# 004-650). […] 10 mM DMSO stocks were prepared, and cells were treated with three concentrations of test compounds viz. 1000, 100 and 10 nM at a final DMSO concentration of 0.1% and incubated for 24h at 37°C, 5% CO2. […] Post run, data were analysed using "Compass for SW" software for chemiluminescent detection. The peak area for each band was used for the calculation of MLLT1 degradation with respect to DMSO control. Data is shown as "MLLT1 % degradation".

Compound	MLLT1 % Degradation @ 0.01 µM	MLLT1 % Degradation @ 0.1 µM	MLLT 1 % Degradation @ 1 µM
CN1CCC[C@@H]1c1cc2cnc(NC(=O)c3ccc(N4CCN(CC#Cc5cccc6c5CN(C5CCC(=O)NC5=O)C6=O)CC4)nc3)cc2[nH]1 (stereo partly drawn) [Example 6, 6-(4-(3-(2-(2,6-dioxopiperidin-3-yl)-1-oxoisoindolin-4-yl)prop-2-yn-1-yl)piperazin-1-yl)-N-(2-((R)-1-methylpyrrolidin-2-yl)-1H-pyrrolo[3,2-c]pyridin-6-yl)nicotinamide]	A (Category A: A ≥ 75% degradation)	A (Category A: A ≥ 75% degradation)	B (Category B: 50% ≤ B < 75% degradation)
CN1CCC[C@@H]1c1cc2cnc(NC(=O)c3cccc(CCCNc4cccc5c4C(=O)N(C4CCC(=O)NC4=O)C5=O)c3)cc2[nH]1 (stereo partly drawn) [Example 45, 3-(3-((2-(2,6-dioxopiperidin-3-yl)-1,3-dioxoisoindolin-4-yl)amino)propyl)-N-(2-((R)-1-methylpyrrolidin-2-yl)-1H-pyrrolo[3,2-c]pyridin-6-yl)benzamide]	A (Category A: A ≥ 75% degradation)	A (Category A: A ≥ 75% degradation)	A (Category A: A ≥ 75% degradation)
CN1CCC[C@@H]1c1cc2cnc(NC(=O)c3ccc(N4CCC(c5ccc(-c6cccc7c6CN(C6CCC(=O)NC6=O)C7=O)cc5)CC4)nc3)cc2[nH]1 (stereo partly drawn) [Example 67, 6-(4-(4-(2-(2,6-dioxopiperidin-3-yl)-1-oxoisoindolin-4-yl)phenyl)piperidin-1-yl)-N-(2-((R)-1-methylpyrrolidin-2-yl)-1H-pyrrolo[3,2-c]pyridin-6-yl)nicotinamide]	A (Category A: A ≥ 75% degradation)	A (Category A: A ≥ 75% degradation)	A (Category A: A ≥ 75% degradation)
CN1CCC[C@@H]1c1[nH]c2cc(NC(=O)CCCCCCNc3cccc4c3C(=O)N(C3CCC(=O)NC3=O)C4=O)ncc2c1Cl (stereo partly drawn) [Example 33, N-{3-chloro-2-[(2R)-1-methylpyrrolidin-2-yl]-1H-pyrrolo[3,2-c]pyridin-6-yl}-7-{[2-(2,6-dioxopiperidin-3-yl)-1,3-dioxoisoindol-4-yl]amino}heptanamide]	B (Category B: 50% ≤ B < 75% degradation)	A (Category A: A ≥ 75% degradation)	A (Category A: A ≥ 75% degradation)
3-(1-(3-(1-(2-(2,6-dioxopiperidin-3-yl)-1,3-dioxoisoindolin-4-yl)piperidin-4-yl)propyl)-1H-pyrazol-4-yl)-N-(2-((R)-1-methylpyrrolidin-2-yl)-1H-pyrrolo[3,2-c]pyridin-6-yl)benzamide [Example 47]	C (Category C: 25% ≤ C < 50% degradation)	B (Category B: 50% ≤ B < 75% degradation)	A (Category A: A ≥ 75% degradation)
CN1CCC[C@@H]1c1cc2cnc(NC(=O)c3ccc(C4CCN(c5cccc6c5C(=O)N(C5CCC(=O)NC5=O)C6=O)CC4)cc3)cc2[nH]1 (stereo partly drawn) [Example 15, 4-(1-(2-(2,6-dioxopiperidin-3-yl)-1,3-dioxoisoindolin-4-yl)piperidin-4-yl)-N-(2-((R)-1-methylpyrrolidin-2-yl)-1H-pyrrolo[3,2-c]pyridin-6-yl)benzamide]	B (Category B: 50% ≤ B < 75% degradation)	A (Category A: A ≥ 75% degradation)	B (Category B: 50% ≤ B < 75% degradation)
CN1CCC[C@@H]1c1cc2cnc(NC(=O)c3ccc(OCCCC#Cc4cccc5c4CN(C4CCC(=O)NC4=O)C5=O)cc3)cc2[nH]1 (stereo partly drawn) [Example 56, 4-((5-(2-(2,6-dioxopiperidin-3-yl)-1-oxoisoindolin-4-yl)pent-4-yn-1-yl)oxy)-N-(2-((R)-1-methylpyrrolidin-2-yl)-1H-pyrrolo[3,2-c]pyridin-6-yl)benzamide]	A (Category A: A ≥ 75% degradation)	A (Category A: A ≥ 75% degradation)	A (Category A: A ≥ 75% degradation)
CN1CCC[C@@H]1c1cc2cnc(NC(=O)c3ccc(CCCNc4cccc5c4C(=O)N(C4CCC(=O)NC4=O)C5=O)cc3)cc2[nH]1 (stereo partly drawn) [Example 36, 4-(3-{[2-(2,6-dioxopiperidin-3-yl)-1,3-dioxoisoindol-4-yl]amino}propyl)-N-{2-[(2R)-1-methylpyrrolidin-2-yl]-1H-pyrrolo[3,2-c]pyridin-6-yl}benzamide]	A (Category A: A ≥ 75% degradation)	A (Category A: A ≥ 75% degradation)	A (Category A: A ≥ 75% degradation)
CN1CCC[C@@H]1c1cc2cnc(NC(=O)c3ccc(-c4cnn(CCOC5CCN(c6cccc(C(=O)N[C@H]7CCC(=O)NC7=O)n6)CC5)c4)cc3)cc2[nH]1 [Example 61, N-((S)-2,6-dioxopiperidin-3-yl)-6-(4-(2-(4-(4-((2-((R)-1-methylpyrrolidin-2-yl)-1H-pyrrolo[3,2-c]pyridin-6-yl)carbamoyl)phenyl)-1H-pyrazol-1-yl)ethoxy)piperidin-1-yl)picolinamide]	A (Category A: A ≥ 75% degradation)	A (Category A: A ≥ 75% degradation)	B (Category B: 50% ≤ B < 75% degradation)
C[C@H](C#Cc1cccc2c1CN(C1CCC(=O)NC1=O)C2=O)Oc1ccc(C(=O)Nc2cc3[nH]c([C@H]4CCCN4C)cc3cn2)cc1 (stereo partly drawn) [Example 25, 4-(((2R)-4-(2-(2,6-dioxopiperidin-3-yl)-1-oxoisoindolin-4-yl)but-3-yn-2-yl)oxy)-N-(2-((R)-1-methylpyrrolidin-2-yl)-1H-pyrrolo[3,2-c]pyridin-6-yl)benzamide]	A (Category A: A ≥ 75% degradation)	A (Category A: A ≥ 75% degradation)	A (Category A: A ≥ 75% degradation)
CN1CCC[C@@H]1c1cc2cnc(NC(=O)c3ccc(OCC#Cc4cccc5c4CN(C4CCC(=O)NC4=O)C5=O)cc3)cc2[nH]1 (stereo partly drawn) [Example 51, 4-((3-(2-(2,6-dioxopiperidin-3-yl)-1-oxoisoindolin-4-yl)prop-2-yn-1-yl)oxy)-N-(2-((R)-1-methylpyrrolidin-2-yl)-1H-pyrrolo[3,2-c]pyridin-6-yl)benzamide]	A (Category A: A ≥ 75% degradation)	A (Category A: A ≥ 75% degradation)	A (Category A: A ≥ 75% degradation)
CN1CCC[C@@H]1c1[nH]c2cc(NC(=O)CCCCCCC#Cc3cccc4c3CN(C3CCC(=O)NC3=O)C4=O)ncc2c1Cl (stereo partly drawn) [Example 13, N-(3-chloro-2-((R)-1-methylpyrrolidin-2-yl)-1H-pyrrolo [3,2-c]pyridin-6-yl)-9-(2-(2,6-dioxopiperidin-3-yl)-1-oxoisoindolin-4-yl) non-8-ynamide]	A (Category A: A ≥ 75% degradation)	A (Category A: A ≥ 75% degradation)	A (Category A: A ≥ 75% degradation)
CN1CCC[C@@H]1c1cc2cnc(NC(=O)c3ccc(CCC4CCN(c5cccc6c5C(=O)N(C5CCC(=O)NC5=O)C6=O)CC4)cc3)cc2[nH]1 (stereo partly drawn) [Example 4, 4-(2-(1-(2-(2,6-dioxopiperidin-3-yl)-1,3-dioxoisoindolin-4-yl)piperidin-4-yl)ethyl)-N-(2-((R)-1-methylpyrrolidin-2-yl)-1H-pyrrolo[3,2-c]pyridin-6-yl)benzamide]	B (Category B: 50% ≤ B < 75% degradation)	A (Category A: A ≥ 75% degradation)	A (Category A: A ≥ 75% degradation)
CN1CCC[C@@H]1c1cc2cnc(NC(=O)c3ccc(CCC#Cc4cccc5c4CN(C4CCC(=O)NC4=O)C5=O)cn3)cc2[nH]1 (stereo partly drawn) [Example 49, 5-(4-(2-(2,6-dioxopiperidin-3-yl)-1-oxoisoindolin-4-yl)but-3-yn-1-yl)-N-(2-((R)-1-methylpyrrolidin-2-yl)-1H-pyrrolo[3,2-c]pyridin-6-yl)picolinamide]	D (Category D: D < 25% degradation)	D (Category D: D < 25% degradation)	C (Category C: 25% ≤ C < 50% degradation)
